{"source": "patent US10961222B2", "about": "“Chemical compound of isocitrate dehydrogenase inhibitor, and application thereof” (NANJING SANHOME PHARMACEUTICAL CO., LTD., priority 2016, dated 2021)", "key": {"[1]": {"test_system": "human acute myeloid leukemia AM7577 cells", "test": "Human acute myeloid leukemia NOD/SCID animal model: survival", "type": "in vivo, NOD/SCID mice", "conditions": "gavage once a day for 14 days, 14 days after administration", "text": "1.1 Compounds to be tested: the compounds of the present disclosure prepared in the above examples, each of which was formulated into a solution in corresponding concentrations by using a vehicle (2% absolute ethanol:10% Solutol™: 88% physiological saline (v/v/v)).\n1.2 Cells: human acute myeloid leukemia AM7577 cells, provided by Sino-American Crown Biotechnology (Beijing) Co., Ltd\n1.4 Animals: NOD/SCID mice, 3-4 weeks old, female, purchased from Beijing Huakangkang Biotechnology Co., Ltd\nEach mouse was inoculated through the tail vein at an amount of 2×10^6 cells resuspended in 100 uL of PBS.\nOrbital blood samples of animals were collected weekly, labeled with human CD45, and the percentage of positive cells was detected. The animals were grouped when the percentage of peripheral blood CD45+ cells reached 5%. The proportion of peripheral blood CD45+ cells reached 5% on the 40th day after inoculation. After grouping, drugs were administered by gastric gavageonce once a day for 14 days.\nThe mortality rate of the animals after administration and the survival period of the surviving animals were observed."}, "[2]": {"test_system": "U87-MG (IDH2-R140Q) subcutaneous xenograft tumor", "test": "Subcutaneous xenograft tumor caused by U87-MG (IDH2-R140Q) mutant cells in vivo: intratumor 2-HG", "parameters": "species or system BALB/c nude mice", "conditions": "U87-MG (IDH2-R140Q) subcutaneous xenograft model", "text": "1.2 Animals: BALB/c nude mice, 6-7 weeks old, female, 18-22 g, purchased from Nanjing Jinlaichang Company.\nU87-MG (IDH2-R140Q) cells and U87-MG cells (wild type) were expanded, and cells in logarithmic growth phase were used for tumor inoculation in vivo. 16 mice were inoculated subcutaneously into the right lower back of the body at an amount of 2×10^6 cells/mouse (the volume ratio of cell suspension to Matrigel was 1:0.8).\nThe non-mutation control group was nude mice inoculated with U87-MG cells, and the test compound groups and vehicle control group were nude mice inoculated with U87-MG (IDH2-R140Q) cells.\nEach group was intragastrically administered with a corresponding concentration of the compound solution, the administration volume was 100 μL/10 g body weight, and the control group was administered the same volume of blank vehicle.\nAfter 10 days of administration, the mice were sacrificed. The tumors were exfoliated, homogenized, and the 2-HG content in the tumor was examined.\nThe 2-HG concentration in the homogenate of each animal tumor in each group was determined by LC-MS/MS. The percentage (2-HG %) was calculated; the calculation formula is as follows 2-HG %=(2-HG concentration of administration group tumor−2-HG concentration of U87-MG control group tumor)/(2-HG concentration of U87−MG(IDH2-R140Q) control group tumor−2-HG concentration of U87-MG control group tumor)×100%."}}, "data": [{"smiles": "O[C@@]1(C(F)(F)F)CCN(c2nc(Nc3ccnc(C(F)(F)F)c3)nc(-c3cccc(C(F)(F)F)n3)n2)C1", "note": "[Example 22B, (S)-4-(3-trifluoromethyl-3-hydroxypyrrolidin-1-yl)-6-(6-(trifluoromethyl)pyridin-2-yl)-N-(2-(trifluoromethyl)pyridin-4-yl)-1,3,5-triazin-2-amine]", "values": [{"measurement": "Numbers of surviving animals", "setting": "[1]; 15 mg/kg, 8 animals per group", "value": 7}, {"measurement": "Numbers of surviving animals", "setting": "[1]; 45 mg/kg, AG-221 group 4 animals, Example 22B group 8", "value": 7}, {"measurement": "ability of lowering 2-HG level compared with positive compound AG-221", "setting": "[2]", "value": "substantially superior"}]}]}
